In assay [1] the test system is Phosphorylated Ribosomal Protein S6 (RPS6) in THP-1 cells. Description: THP-1 RPS6 ELISA Assay. The conditions noted are these: MCP-1 stimulated, phospho-RPS6 ELISA, read-out: THP p-RPS6 ELISA IC50. In kind it is cell-based, Human. The method, then:
Example A. THP-1 RPS6 ELISA Assay
To measure the Phosphorylated Ribosomal Protein S6 (RPS6) in cell lysates, THP-1 cells (Human Acute Monocytic Leukemia) are purchased from ATCC (Manassas, Va.) and maintained in RPMI with 10% FBS (Gibco/Life Technologies, Carlsbad, Calif.). For the assay, THP-1 cells are serum starved overnight in RPMI, then plated in RPMI (2×10^5 cells/well in 90 μL) into 96-well flat-bottom tissue culture treated plates (Corning, Corning, N.Y.), in the presence or absence of a concentration range of test compounds. Covered plates are incubated for 2 hours at 37° C., 5% CO2 then treated with or without 10 nM MCP-1 (MYBioSource, San Diego, Calif.) for 15 minutes at 37° C., 5% CO2. Plates are centrifuged at 1600 RPM and supernatants are removed. Cells are lysed in Lysis Buffer (Cell Signaling, Danvers, Mass.) with Protease Inhibitor (Calbiochem/EMD, Germany), PMSF (Sigma, St Louis Mo.), HALTS (Thermo Fisher, Rockford, Ill.) for 30 min on wet ice. Cell lysates are frozen at −80° C. before testing. The lysates are tested in the Human/Mouse/Rat Phospho-RPS6 ELISA (R&D Systems, Inc. Minn, Minn.). The plate is measured using a microplate reader (SpectraMax M5—Molecular Devices, LLC Sunnyvale, Calif.) set to 450 nm with a wavelength correction of 540. IC50 determination is performed by fitting the curve of inhibitor percent inhibition versus the log of the inhibitor concentration using the GraphPad Prism 5.0 software.

In assay [2] the target is PI3Kγ (p110γ) Recombinant Human Protein (Homo sapiens (Human), UniProt P48736). The assay can be described thus: PI3K-γ Scintillation Proximity Assay. In kind it is biochemical. The conditions noted are these: read-out: PI3K-gamma SPA IC50. The procedure, abridged:
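Radiometric SPA: reaction at room temperature for 120 min using 2 μM ATP with [γ-33P]ATP tracer, 20 μM PIP2 substrate and 13 nM human PI3Kγ (MOPS pH 6.7, MgCl2, DTT, CHAPS; 2% DMSO). EDTA quench with WGA beads, scintillation count, and IC50 fit of percent-of-control activity.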
(In general: Scintillation proximity formats need no separation of bound from free tracer.)

Assay [3] deals with PI3Kδ (p110δ/p85α) Recombinant Human Protein (Homo sapiens (Human), UniProt O00329). The assay can be described thus: PI3Kδ Scintillation Proximity Assay. In kind it is biochemical. The conditions noted are these: read-out: PI3K-delta SPA IC50. The gist of the method:
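IC50 was fitted to percent solvent-control activity from SPA scintillation counts after WGA bead capture of 33P-labelled lipid product. Reaction: 120 min, room temperature, 3.4 nM p110δ/p85α, 20 μM PIP2, 2 μM ATP with tracer, MOPS pH 6.7 buffer containing MgCl2, DTT, CHAPS, 2% DMSO.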

Counter-ions that a name gives are not always drawn. Like-named read-outs stand apart in the source and are kept apart here.

Sequence of PI3Kδ (p110δ/p85α) Recombinant Human Protein (O00329 whole entry): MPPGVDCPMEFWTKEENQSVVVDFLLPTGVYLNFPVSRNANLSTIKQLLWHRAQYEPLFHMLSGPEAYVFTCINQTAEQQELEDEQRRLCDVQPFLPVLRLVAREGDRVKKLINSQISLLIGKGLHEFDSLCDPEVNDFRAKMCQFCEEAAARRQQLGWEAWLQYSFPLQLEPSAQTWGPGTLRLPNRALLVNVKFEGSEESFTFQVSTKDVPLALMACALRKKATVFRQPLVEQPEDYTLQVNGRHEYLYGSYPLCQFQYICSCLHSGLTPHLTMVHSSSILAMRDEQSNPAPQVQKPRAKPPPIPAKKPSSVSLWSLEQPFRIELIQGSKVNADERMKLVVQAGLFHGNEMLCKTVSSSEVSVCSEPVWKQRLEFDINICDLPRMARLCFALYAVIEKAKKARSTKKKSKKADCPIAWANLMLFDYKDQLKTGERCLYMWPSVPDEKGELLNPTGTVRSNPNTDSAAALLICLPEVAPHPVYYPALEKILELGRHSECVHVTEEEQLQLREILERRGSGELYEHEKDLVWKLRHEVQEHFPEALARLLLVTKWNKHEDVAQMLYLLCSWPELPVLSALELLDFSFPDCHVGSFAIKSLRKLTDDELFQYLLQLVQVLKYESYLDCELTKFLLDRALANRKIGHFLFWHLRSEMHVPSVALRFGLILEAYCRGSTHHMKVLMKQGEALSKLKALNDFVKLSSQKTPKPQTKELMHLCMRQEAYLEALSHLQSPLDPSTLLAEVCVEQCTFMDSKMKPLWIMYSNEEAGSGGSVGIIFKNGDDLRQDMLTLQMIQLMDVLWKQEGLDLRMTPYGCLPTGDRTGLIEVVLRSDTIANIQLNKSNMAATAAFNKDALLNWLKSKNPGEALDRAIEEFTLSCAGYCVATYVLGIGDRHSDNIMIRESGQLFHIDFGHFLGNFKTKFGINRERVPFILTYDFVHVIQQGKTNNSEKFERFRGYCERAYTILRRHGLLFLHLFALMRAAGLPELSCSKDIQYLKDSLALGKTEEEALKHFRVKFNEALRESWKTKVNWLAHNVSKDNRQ
Sequence of PI3Kδ (p110δ/p85α) Recombinant Human Protein (P27986 whole entry partner): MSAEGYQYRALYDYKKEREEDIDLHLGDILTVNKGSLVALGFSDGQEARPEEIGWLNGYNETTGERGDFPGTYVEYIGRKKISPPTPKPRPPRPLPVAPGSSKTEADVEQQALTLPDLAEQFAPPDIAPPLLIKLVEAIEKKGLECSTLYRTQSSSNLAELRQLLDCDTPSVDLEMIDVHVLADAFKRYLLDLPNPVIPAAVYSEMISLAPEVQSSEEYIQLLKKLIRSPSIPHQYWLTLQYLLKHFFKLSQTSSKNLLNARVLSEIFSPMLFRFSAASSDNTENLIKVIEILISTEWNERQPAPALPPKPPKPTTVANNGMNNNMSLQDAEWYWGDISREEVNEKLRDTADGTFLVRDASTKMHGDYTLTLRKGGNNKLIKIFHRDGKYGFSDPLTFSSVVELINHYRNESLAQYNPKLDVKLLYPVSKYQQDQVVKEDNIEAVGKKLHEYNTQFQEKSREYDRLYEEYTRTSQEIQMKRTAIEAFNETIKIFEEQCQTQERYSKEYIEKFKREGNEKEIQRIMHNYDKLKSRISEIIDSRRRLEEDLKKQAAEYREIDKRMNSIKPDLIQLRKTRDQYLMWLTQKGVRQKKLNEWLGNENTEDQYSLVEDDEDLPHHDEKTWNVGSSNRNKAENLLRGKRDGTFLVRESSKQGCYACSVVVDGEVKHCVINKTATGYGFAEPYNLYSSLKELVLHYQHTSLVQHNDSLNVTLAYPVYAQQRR
Sequence of PI3Kγ (p110γ) Recombinant Human Protein (P48736 whole entry): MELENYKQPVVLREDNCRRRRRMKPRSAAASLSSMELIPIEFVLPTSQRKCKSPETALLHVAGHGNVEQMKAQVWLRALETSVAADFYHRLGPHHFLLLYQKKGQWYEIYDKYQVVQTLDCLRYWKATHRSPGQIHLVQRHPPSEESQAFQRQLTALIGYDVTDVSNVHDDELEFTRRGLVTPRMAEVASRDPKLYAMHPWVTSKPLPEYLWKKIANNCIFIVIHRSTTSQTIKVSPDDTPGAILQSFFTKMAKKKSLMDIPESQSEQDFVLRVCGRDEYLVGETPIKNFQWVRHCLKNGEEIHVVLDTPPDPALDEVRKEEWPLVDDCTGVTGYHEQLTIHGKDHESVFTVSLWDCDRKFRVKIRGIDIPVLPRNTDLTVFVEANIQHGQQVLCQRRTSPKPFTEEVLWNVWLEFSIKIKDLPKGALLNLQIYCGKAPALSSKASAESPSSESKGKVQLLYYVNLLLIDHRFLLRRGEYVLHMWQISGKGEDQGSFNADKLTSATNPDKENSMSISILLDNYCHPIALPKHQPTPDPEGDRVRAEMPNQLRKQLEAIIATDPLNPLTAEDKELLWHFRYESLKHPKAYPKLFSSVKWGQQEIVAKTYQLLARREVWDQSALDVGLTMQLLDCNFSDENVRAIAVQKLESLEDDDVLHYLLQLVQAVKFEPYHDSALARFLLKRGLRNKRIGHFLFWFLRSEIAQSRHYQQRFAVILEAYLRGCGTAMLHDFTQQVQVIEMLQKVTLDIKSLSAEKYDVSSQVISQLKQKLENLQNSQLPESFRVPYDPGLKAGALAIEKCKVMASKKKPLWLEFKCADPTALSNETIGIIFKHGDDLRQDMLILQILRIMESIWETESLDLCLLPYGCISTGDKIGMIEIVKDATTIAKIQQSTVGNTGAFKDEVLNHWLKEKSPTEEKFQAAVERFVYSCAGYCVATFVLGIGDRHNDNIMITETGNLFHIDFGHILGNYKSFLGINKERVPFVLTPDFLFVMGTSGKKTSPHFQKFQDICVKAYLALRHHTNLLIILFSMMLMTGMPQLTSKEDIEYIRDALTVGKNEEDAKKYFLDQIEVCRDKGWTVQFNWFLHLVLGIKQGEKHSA

Turning to `c1ccc(Cn2cc(-c3ccnc(-c4ncc(-c5ccccc5)[nH]4)c3)cn2)cc1` [Example 5, 4-(1-Benzyl-1H-pyrazol-4-yl)-2-(5-phenyl-1H-imidazol-2-yl)pyridine trifluoroacetate salt], the IC50 is 1000 to 5000 nM in assay [1] (Homo sapiens), at most 100 nM in assay [2] and at most 50 nM in assay [3].
As for `c1cc(-c2cncc(N3CCOCC3)c2)cc(-c2ncc(C3CCC3)[nH]2)n1` [Example 103, 4-(2′-(5-Cyclobutyl-1H-imidazol-2-yl)-3,4′-bipyridin-5-yl)morpholine trifluoroacetate salt], the IC50 in assay [1] (Homo sapiens) was 1000 to 5000 nM; in assay [2], at most 100 nM; in assay [3] it was at most 50 nM.
Take `CS(=O)(=O)c1cncc(-c2ccnc(-c3ncc(Cc4ccccc4)[nH]3)c2)c1` [Example 115, 2′-(5-Benzyl-1H-imidazol-2-yl)-5-(methylsulfonyl)-3,4′-bipyridine trifluoroacetate salt]: the IC50 is at most 300 nM in assay [1] (Homo sapiens), at most 50 nM in assay [2] and at most 50 nM in assay [3].
Turning to `Cc1[nH]c(-c2cc(-c3cncc(N4CCOCC4)c3)ccn2)nc1C(=O)NC1Cc2ccccc2C1` [Example 282, N-(2,3-Dihydro-1H-inden-2-yl)-5-methyl-2-(5-morpholin-4-yl-3,4′-bipyridin-2′-yl)-1H-imidazole-4-carboxamide trifluoroacetate salt], the results for the IC50 in assay [1] (Homo sapiens), in assay [2] and in assay [3] were 300 to 1000 nM, at most 50 nM and at most 50 nM, respectively.
Consider `Cc1nc(-c2cc(-c3cncc(S(C)(=O)=O)c3)ccn2)[nH]c1C1CC1` [Example 116, 2′-(5-Cyclopropyl-4-methyl-1H-imidazol-2-yl)-5-(methylsulfonyl)-3,4′-bipyridine trifluoroacetate salt], for which the IC50 was at most 300 nM in assay [1] (Homo sapiens), at most 50 nM in assay [2] and at most 50 nM in assay [3].
`COc1cncc(-c2ccnc(-c3nc4ccccc4[nH]3)n2)c1` [Example 94, 2-[4-(5-Methoxypyridin-3-yl)pyrimidin-2-yl]-1H-benzimidazole Trifluoroacetate Salt]: the IC50 in assay [1] (Homo sapiens) was 1000 to 5000 nM; in assay [2], at most 500 nM; in assay [3], above 500 nM.
Turning to `COC[C@H](NC(=O)c1nc(-c2cc(-c3cncc(N4CCOCC4)c3)ccn2)[nH]c1C)c1ccccc1` [Example 275, N-[(1R)-2-Methoxy-1-phenylethyl]-5-methyl-2-(5-morpholin-4-yl-3,4′-bipyridin-2′-yl) 1H-imidazole-4-carboxamide trifluoroacetate salt], the IC50 in assay [1] was at most 300 nM; in assay [2] it was at most 50 nM; in assay [3], at most 50 nM.
Consider `COC(=O)c1nc(-c2cc(-c3cncc(N4CCOCC4)c3)ccn2)[nH]c1C` [Example 125, Methyl 5-methyl-2-(5-morpholin-4-yl-3,4′-bipyridin-2′-yl)-1H-imidazole-4-carboxylate], for which the figures for the IC50 in assay [1] (Homo sapiens), in assay [2] and in assay [3] were 300 to 1000 nM, at most 100 nM and at most 50 nM, respectively.
As to `Cc1nc(-c2cc(-c3cncc(C(=O)N4CCC(C#N)C4)c3)ccn2)[nH]c1C` (racemic) [Example 183, 1-{[2′-(4,5-Dimethyl-1H-imidazol-2-yl)-3,4′-bipyridin-5-yl]carbonyl}pyrrolidine-3-carbonitrile trifluoroacetate salt], the IC50 in assay [1] (Homo sapiens) was 300 to 1000 nM; in assay [2] it was at most 50 nM; in assay [3], at most 50 nM.
For the molecule `COc1cncc(-c2ccnc(-c3ncc(C4CC4)[nH]3)c2)c1` [Example 86, 2′-(5-Cyclopropyl-1H-imidazol-2-yl)-5-methoxy-3,4′-bipyridine], the results for the IC50 in assay [1] (Homo sapiens), in assay [2] and in assay [3] were 300 to 1000 nM, at most 50 nM and at most 500 nM, respectively.
On to `Cc1nc(-c2cc(-c3cncc(N4CC[C@H](O)C4)c3)ccn2)[nH]c1C` [Example 232, (3S)-1-[2′-(4,5-Dimethyl-1H-imidazol-2-yl)-3,4′-bipyridin-5-yl]pyrrolidin-3-ol], for which the IC50 in assay [1] (Homo sapiens) is 300 to 1000 nM; in assay [2] it was at most 100 nM; in assay [3], at most 500 nM.
Consider `COCC(=O)Nc1cncc(-c2ccnc(-c3ncc(-c4ccccc4)[nH]3)c2)c1` [Example 131, 2-Methoxy-N-[2′-(5-phenyl-1H-imidazol-2-yl)-3,4′-bipyridin-5-yl]acetamide Trifluoroacetate Salt], for which the IC50 in assay [1] (Homo sapiens) was above 5000 nM; in assay [2] it was at most 50 nM; in assay [3] it was at most 50 nM.
As to `Cc1[nH]c(-c2cc(-c3cncc(S(C)(=O)=O)c3)ccn2)nc1C(=O)NC1CCCC1` [Example 243, N-Cyclopentyl-5-methyl-2-[5-(methylsulfonyl)-3,4′-bipyridin-2′-yl]-1H-imidazole-4-carboxamide], the IC50 in assay [1] (Homo sapiens) was at most 300 nM; in assay [2] it was at most 50 nM; in assay [3] it was at most 50 nM.
Turning to `Cc1[nH]c(-c2cc(-c3cncc(S(C)(=O)=O)c3)ccn2)nc1C(=O)N[C@H]1CCOC1` [Example 255, 5-Methyl-2-[5-(methylsulfonyl)-3,4′-bipyridin-2′-yl]-N-[(3,S)-tetrahydrofuran-3-yl]-lH-imidazole-4-carboxamide trifluoroacetate salt], the IC50 is 300 to 1000 nM in assay [1], at most 50 nM in assay [2] and at most 50 nM in assay [3].
`Cc1nc(-c2cc(-c3cncc(C(=O)N4CCCCC4C)c3)ccn2)[nH]c1C` (racemic) [Example 190, 2′-(4,5-Dimethyl-1H-imidazol-2-yl)-5-[(2-methylpiperidin-1-yl)carbonyl]-3,4′-bipyridine trifluoroacetate salt]: the IC50 was 300 to 1000 nM in assay [1] (Homo sapiens), at most 50 nM in assay [2] and at most 100 nM in assay [3].
Take `O=S(=O)(C1CCCC1)n1cc(-c2ccnc(-c3ncc(-c4ccccc4)[nH]3)c2)cn1` [Example 54, 4-(1-(Cyclopentylsulfonyl)-1H-pyrazol-4-yl)-2-(5-phenyl-1H-imidazol-2-yl)pyridine trifluoroacetate salt]: the IC50 in assay [1] (Homo sapiens) was above 5000 nM; in assay [2], at most 100 nM; in assay [3] it was at most 100 nM.
As for `CC(=O)Nc1cncc(-c2ccnc(-c3ncc(-c4ccccc4)[nH]3)c2)c1` [Example 17, N-(2′-(5-Phenyl-1H-imidazol-2-yl)-3,4′-bipyridin-5-yl)acetamide trifluoroacetate salt], the IC50 in assay [1] (Homo sapiens) is 300 to 1000 nM; in assay [2], at most 50 nM; in assay [3], at most 50 nM.
In the case of `Cc1nc(-c2cc(-c3cncc(C(=O)N(C)Cc4ccccc4)c3)ccn2)[nH]c1C` [Example 193, N-Benzyl-2′-(4,5-dimethyl-1H-imidazol-2-yl)-N-methyl-3,4′-bipyridine-5-carboxamide trifluoroacetate salt], the results for the IC50 in assay [1] (Homo sapiens), in assay [2] and in assay [3] were at most 300 nM, at most 50 nM and at most 50 nM, respectively.
For the molecule `COc1cncc(-c2ccnc(-c3nnc(Nc4ccccc4)[nH]3)c2)c1` [Example 70, 5-(5-Methoxy-3,4′-bipyridin-2′-yl)-N-phenyl-4H-1,2,4-triazol-3-amine trifluoroacetate salt], the IC50 is above 5000 nM in assay [1] (Homo sapiens), at most 500 nM in assay [2] and at most 500 nM in assay [3].
Regarding `Cc1nc(-c2cc(-c3cncc(C(=O)NCC4CC4)c3)ccn2)[nH]c1C` [Example 202, N-(Cyclopropylmethyl)-2′-(4,5-dimethyl-1H-imidazol-2-yl)-3,4′-bipyridine-5-carboxamide trifluoroacetate salt], the IC50 was 300 to 1000 nM in assay [1] (Homo sapiens), at most 100 nM in assay [2] and at most 100 nM in assay [3].
